Measured values: patent US20090215729A1, “MICROPARTICLE COMPOSITIONS TO MODIFY CANCER PROMOTING CELLS” (priority 2008, published 2009)

System: 4t1-luc cancer cells
Test: syngeneic 4t1 mouse model of breast cancer, tumor volume growth
Format: in vivo
Conditions: Balb/c mice, tail vein injection 100 microliters, six administrations, twice a week starting day 1 after tumor challenge, caliper measurements, relative to PBS control
Description: In vivo testing was done with a syngeneic 4t1 model of breast cancer in immuno-competent Balb/c mice. […] Briefly, primary tumors were established in mammary tissue of 6 week old Balb/c mice by injection of 106 4t1-12B cells subcutaneously under the nipple. The mice were kept in standard housing and with a normal diet. Each group of mice (6-10 per group, 20 g±10% body weight) were injected (100 microliters) 2 times per week through the tail vein for a period of 3 weeks, starting either on day one or day six after the tumor challenge. Clodronate solution was dissolved in PBS and given intravenously starting on day one after tumor challenge. Control mice were injected intravenously through the tail vein with PBS. Tumor growth was measured in a blinded fashion with a caliper each week and tumor volumes were calculated using the measured dimensions. Body weights were recorded weekly, and mice were sacrificed on day 34.

## O=P(O)(O)C(Cl)(Cl)P(=O)(O)O [Clodronate (5.6 mg/mL) in PBS, clodronate]
  tumor volume growth of 4t1-luc cancer cells: did not inhibit the growth of 4 μl tumors relative to PBS control
Listed as clodronate solution
  tumor volume growth of 4t1-luc cancer cells: unable to inhibit growth of 4 μl tumors as effectively as clodronate-hydroxyapatite
